Measured values as given in patent publication US20250177458A1, “USES OF BIFIDOBACTERIUM LONGUM MICROORGANISMS HAVING THE CAPACITY TO DEGRADE BOTH HMO AND PLANT-DERIVED GLYCANS” (SOCIETE DES PRODUITS NESTLE S.A., priority 2022, published 2025).

Tested on: transitional B. longum isolate NCC5004
Assay: in vitro tube fermentation of fecal sample supplemented with isolate NCC5004, isolate-specific qPCR
Assay type: cell-based, Bifidobacterium longum
Settings: HMO 5 g/L as single carbon source, toddler fecal community, after 24 hr and 48 hrs
Description: All bacterial strains retrieved from the Nestlé Culture Collection (NCC) were reactivated from a freeze-dried stock using two successive culturing steps (16 h, 37° C., anaerobiosis) in MRS (De Man, Rogosa and Sharpe) media supplemented with 0.05% cysteine (MRSc). Reactivated cultures were then centrifuged, washed, and resuspended in 1 volume of PBS.
For in vitro tube fermentation experiments, pulverized or homogenized stool samples were mixed 10-fold by adding PBS/glycerol (1/10) (w/v) before centrifugation at 600×g for 2 minutes. The slurry and pellet were then stored at −80° C. Frozen slurry of a fecal sample was thawed from storage and then use for the in vitro tube fermentation assays. The fecal slurry was inoculated with media based on that disclosed in Gibson et al. (Applied and Environmental Microbiology; 1988; 54(11); 2750-2755) with some modifications, specifically the exclusion of any carbon source. […]
The in vitro tube fermentation assays (n=3 per testing group) were set up at 37° C. with gentle stirring in an anaerobic environment (gas flow of pure N2 and a mix of N2, H2, and CO2 to ensure anaerobic conditions). Aliquots (0.5 mL) from fermentation tubes were taken and DNA was extracted, purified and analyzed at the time points indicated (0 hr, 24 hr and 48 hr). […]

| Substance | growth of NCC5004 (qPCR absolute abundance) compared to baseline (0 hrs) |
| --- | --- |
| 2′ fucosyllactose [2′FL] | significant growth |
| 3-fucosyllactose [3 FL] | significant growth |
